According to PubChem BioAssay (NCI):
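How tested: cells in 96-well plates exposed to compound for 48 hours at five concentrations. The concentration for 50% growth inhibition is given as GI50. TGI marks complete inhibition of growth.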

Tests used:
Experiment in all cases: inhibition of tumour cell growth, NCI panel, 48 h
[1] = test system: T-47D breast
[2] = test system: MDA-MB-435
[3] = test system: HCT-15 colon
[4] = test system: A549 NSCLC
[5] = test system: NCI-H522 lung
[6] = test system: NCI-H23 lung
[7] = test system: SK-OV-3 ovarian
[8] = test system: LOX IMVI melanoma
[9] = test system: EKVX NSCLC
[10] = test system: IGROV1 ovarian
[11] = test system: SK-MEL-5 melanoma
[12] = test system: 786-0 renal
[13] = test system: UACC-62 melanoma
[14] = test system: K-562 leukemia
[15] = test system: A498 renal
[16] = test system: UACC-257 melanoma
[17] = test system: M14 melanoma
[18] = test system: MOLT-4 leukemia
[19] = test system: HS 578T breast
[20] = test system: MCF7 breast
[21] = test system: HL-60(TB) leukemia
[22] = test system: MDA-MB-231 breast
[23] = test system: CCRF-CEM leukemia
[24] = test system: UO-31 renal
[25] = test system: NCI/ADR-RES ovarian
[26] = test system: BT-549 breast
[27] = test system: OVCAR-5 ovarian
[28] = test system: SF-539 CNS
[29] = test system: OVCAR-3 ovarian
[30] = test system: HOP-92 NSCLC
[31] = test system: KM12 colon
[32] = test system: SNB-75 CNS
[33] = test system: RPMI-8226 leukemia
[34] = test system: MALME-3M melanoma
[35] = test system: SN12C renal
[36] = test system: HCT-116 colon
[37] = test system: PC-3 prostate
[38] = test system: ACHN renal
[39] = test system: OVCAR-8 ovarian
[40] = test system: SR leukemia
[41] = test system: OVCAR-4 ovarian
[42] = test system: COLO 205 colon
[43] = test system: DU-145 prostate
[44] = test system: TK-10 renal
[45] = test system: HT29 colon
[46] = test system: SK-MEL-2 melanoma
[47] = test system: SNB-19 CNS
[48] = test system: HCC-2998 colon
[49] = test system: HOP-62 NSCLC
[50] = test system: NCI-H226 lung
[51] = test system: SF-295 CNS
[52] = test system: SK-MEL-28 melanoma
[53] = test system: SF-268 CNS
[54] = test system: CAKI-1 renal
[55] = test system: SW-620 colon
[56] = test system: RXF 393 renal

For C=CCCCCOc1ccccc1-c1cnc(OCCCCC=C)n1C, the GI50 [1] was 3.53 µM, the TGI [1] was 29.5 µM and the GI50 [2] was 2.08 µM. For the same compound, the TGI [2] was 5.22 µM, the GI50 [3] was 4 µM and the TGI [3] was 16.3 µM. The GI50 [4] was 3.92 µM, the TGI [4] was 21.9 µM and the GI50 [5] was 2.59 µM. It also gave a TGI [5] of 6.72 µM, a GI50 [6] of 5.04 µM and a TGI [6] of 26.8 µM. It also gave a GI50 [7] of 3.96 µM, a TGI [7] of 19.7 µM and a GI50 [8] of 4.89 µM. For the same compound, the TGI [8] was 17 µM, the GI50 [9] was 11 µM and the TGI [9] was 44.1 µM. For the same compound, the GI50 [10] was 4.64 µM, the TGI [10] was 20.1 µM and the GI50 [11] was 3.69 µM. For the same compound, the TGI [11] was 13.7 µM, the GI50 [12] was 5.29 µM and the TGI [12] was 21.3 µM. The GI50 [13] was 3.93 µM, the TGI [13] was 17.4 µM and the GI50 [14] was 3.74 µM. The TGI [14] was 14.1 µM, the GI50 [15] was 2.1 µM and the TGI [15] was 10.2 µM. For the same compound, the GI50 [16] was 2.14 µM, the TGI [16] was 12.9 µM and the GI50 [17] was 2.88 µM. It also gave a TGI [17] of 14.6 µM, a GI50 [18] of 4.54 µM and a TGI [18] of 18.7 µM. It also gave a GI50 [19] of 4.13 µM, a TGI [19] of 23.7 µM and a GI50 [20] of 2.89 µM. For the same compound, the TGI [20] was 11.6 µM, the GI50 [21] was 2.17 µM and the TGI [21] was 7.14 µM. For the same compound, the GI50 [22] was 5.19 µM, the TGI [22] was 20.3 µM and the GI50 [23] was 4.27 µM. For the same compound, the TGI [23] was 20.4 µM, the GI50 [24] was 3.09 µM and the TGI [24] was 20.7 µM. The GI50 [25] was 2.29 µM, the TGI [25] was 5.96 µM and the GI50 [26] was 4.15 µM. For the same compound, the TGI [26] was 18.7 µM, the GI50 [27] was 5.22 µM and the TGI [27] was 23.1 µM. It also gave a GI50 [28] of 5.82 µM, a TGI [28] of 19.7 µM and a GI50 [29] of 3.21 µM. For the same compound, the TGI [29] was 10.1 µM, the GI50 [30] was 1.81 µM and the TGI [30] was 19.7 µM. For the same compound, the GI50 [31] was 3.3 µM, the TGI [31] was 13.1 µM and the GI50 [32] was 2.52 µM. For the same compound, the TGI [32] was 11.6 µM, the GI50 [33] was 3.22 µM and the TGI [33] was 14.1 µM. The GI50 [34] was 3.63 µM, the TGI [34] was 16.4 µM and the GI50 [35] was 5.51 µM. It also gave a TGI [35] of 23.9 µM, a GI50 [36] of 2.66 µM and a TGI [36] of 11.8 µM. For the same compound, the GI50 [37] was 5.38 µM, the TGI [37] was 28.9 µM and the GI50 [38] was 6.8 µM. The TGI [38] was 38.9 µM, the GI50 [39] was 4.23 µM and the TGI [39] was 17.2 µM. The GI50 [40] was 4.3 µM, the TGI [40] was 13.7 µM and the GI50 [41] was 10.3 µM. It also gave a TGI [41] of 50.7 µM, a GI50 [42] of 3.23 µM and a TGI [42] of 11.1 µM. For the same compound, the GI50 [43] was 5.68 µM, the TGI [43] was 22.3 µM and the GI50 [44] was 3.5 µM. For the same compound, the TGI [44] was 23 µM, the GI50 [45] was 3.22 µM and the TGI [45] was 10.2 µM. It also gave a GI50 [46] of 2.56 µM, a TGI [46] of 5.88 µM and a GI50 [47] of 7.39 µM. The TGI [47] was 38.1 µM, the GI50 [48] was 6.57 µM and the TGI [48] was 21.3 µM. The GI50 [49] was 5.13 µM, the TGI [49] was 20.6 µM and the GI50 [50] was 13 µM. For the same compound, the TGI [50] was 28.5 µM, the GI50 [51] was 4.03 µM and the TGI [51] was 20.1 µM. For the same compound, the GI50 [52] was 4.51 µM, the TGI [52] was 31.6 µM and the GI50 [53] was 4.21 µM. The TGI [53] was 21.3 µM, the GI50 [54] was 4.36 µM and the TGI [54] was 23.8 µM. For the same compound, the GI50 [55] was 2.97 µM, the TGI [55] was 11 µM and the GI50 [56] was 5.23 µM. The TGI [56] was 18.2 µM.
